{"source": "patent US4863932A", "about": "“Squalene oxide cyclase inhibitors and therapeutic use thereof” (Somatogenetics International, Inc., priority 1988, dated 1989)", "key": {"cholesterol synthesis": {"system": "cholesterol synthesis", "experiment": "Inhibition of cholesterol synthesis"}, "fatty acid synthesis": {"system": "fatty acid synthesis", "experiment": "Inhibition of fatty acid synthesis", "conditions": "compared with its inhibition of cholesterol synthesis"}}}
{"smiles": "CC1(C)[C@@H](O)CC[C@]2(C)[C@@H](CO)CCC[C@@H]12", "note": "(relative stereo) [JW I-60, 4,4,10beta-trimethyl-9beta-hydroxymethyl-trans-decal-3beta-ol]", "values": [{"measurement": "inhibition of cholesterol synthesis", "setting": "cholesterol synthesis", "result": "weak inhibitor of cholesterol synthesis"}, {"measurement": "inhibition of fatty acid synthesis", "setting": "fatty acid synthesis", "result": "much more effective inhibitor of fatty acid synthesis"}]}
